We go through 4 compounds from patent US10045981B2, “Selective kinase inhibitors” (JAKPHARM, LLC, priority 2015, dated 2018).

By IC50 is commonly meant the midpoint of a concentration-inhibition curve. Low values mean inhibition by little substance, high ones a need for much substance.

The target in one assay is EGFR (Homo sapiens, UniProt P00533). The assay is described as follows: Exemplary Kinase Panel Analysis. It is filed as biochemical. The conditions noted are these: 10 concentrations, 3-fold serial dilutions starting at 5 μM, duplicate. As to the method: Kinase Panel: These compounds were tested against 439 kinases. […]. […] The results are presented in Table 2 below, where empty cells indicate no inhibition or compound activity that could not be fit to an IC50 curve.
Chain of EGFR (P00533 25-1210): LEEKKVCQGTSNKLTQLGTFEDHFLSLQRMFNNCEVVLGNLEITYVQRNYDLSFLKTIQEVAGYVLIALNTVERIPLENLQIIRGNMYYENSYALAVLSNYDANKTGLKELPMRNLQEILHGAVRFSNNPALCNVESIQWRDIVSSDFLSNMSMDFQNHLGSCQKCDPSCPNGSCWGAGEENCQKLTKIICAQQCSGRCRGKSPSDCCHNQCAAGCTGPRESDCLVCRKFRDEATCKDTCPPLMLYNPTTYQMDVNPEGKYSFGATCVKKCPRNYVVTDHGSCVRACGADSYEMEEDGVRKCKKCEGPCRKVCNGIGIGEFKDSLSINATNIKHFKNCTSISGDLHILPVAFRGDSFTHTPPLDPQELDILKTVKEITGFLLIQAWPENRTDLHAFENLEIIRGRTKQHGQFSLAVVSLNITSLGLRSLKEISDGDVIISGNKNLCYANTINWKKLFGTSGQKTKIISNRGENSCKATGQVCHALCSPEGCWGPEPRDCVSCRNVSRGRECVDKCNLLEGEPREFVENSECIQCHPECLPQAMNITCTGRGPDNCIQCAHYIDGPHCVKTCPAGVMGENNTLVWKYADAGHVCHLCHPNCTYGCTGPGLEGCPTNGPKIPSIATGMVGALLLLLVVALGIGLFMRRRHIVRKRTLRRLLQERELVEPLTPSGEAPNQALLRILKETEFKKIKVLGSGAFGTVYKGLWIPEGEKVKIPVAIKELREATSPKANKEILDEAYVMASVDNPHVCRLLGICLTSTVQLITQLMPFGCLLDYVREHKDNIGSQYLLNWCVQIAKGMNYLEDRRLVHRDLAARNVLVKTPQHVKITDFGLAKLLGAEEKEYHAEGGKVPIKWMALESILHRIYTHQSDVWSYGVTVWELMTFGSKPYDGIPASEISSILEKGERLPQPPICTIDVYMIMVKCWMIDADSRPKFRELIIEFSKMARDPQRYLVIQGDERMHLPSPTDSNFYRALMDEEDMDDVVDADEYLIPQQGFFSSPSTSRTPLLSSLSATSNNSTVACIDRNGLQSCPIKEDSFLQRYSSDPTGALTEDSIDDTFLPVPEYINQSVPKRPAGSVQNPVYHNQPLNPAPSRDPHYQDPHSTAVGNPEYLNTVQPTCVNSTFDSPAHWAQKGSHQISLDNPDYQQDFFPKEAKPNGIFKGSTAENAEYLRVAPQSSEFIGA

The target of the next assay is EGFR (d746-750) (Homo sapiens, UniProt P00533, DEL746-750). The assay is described as follows: Exemplary Kinase Panel Analysis. The conditions noted are these: 10 concentrations, 3-fold serial dilutions starting at 5 μM, duplicate. The format is biochemical.
Chain of EGFR (d746-750) (P00533 with tags, fused parts or gaps DEL746-750 limits assumed): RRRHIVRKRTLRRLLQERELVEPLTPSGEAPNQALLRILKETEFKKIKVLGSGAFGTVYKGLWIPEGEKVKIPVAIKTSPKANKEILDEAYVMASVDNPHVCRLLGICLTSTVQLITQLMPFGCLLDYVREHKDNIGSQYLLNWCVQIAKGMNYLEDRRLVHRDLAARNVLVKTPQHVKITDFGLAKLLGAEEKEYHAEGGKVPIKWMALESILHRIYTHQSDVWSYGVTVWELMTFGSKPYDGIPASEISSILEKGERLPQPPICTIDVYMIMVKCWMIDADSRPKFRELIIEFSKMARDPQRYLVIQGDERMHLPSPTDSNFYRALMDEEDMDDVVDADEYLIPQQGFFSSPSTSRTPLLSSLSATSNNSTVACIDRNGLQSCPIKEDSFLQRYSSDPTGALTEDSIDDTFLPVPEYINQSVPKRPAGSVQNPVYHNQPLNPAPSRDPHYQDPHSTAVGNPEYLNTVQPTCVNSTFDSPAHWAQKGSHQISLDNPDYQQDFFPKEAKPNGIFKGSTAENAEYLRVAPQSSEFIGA
Another assay deals with EGFR (L861Q) (Homo sapiens, UniProt P00533, L861Q). The assay is described as follows: Exemplary Kinase Panel Analysis. The format is biochemical. The conditions noted are these: 10 concentrations, 3-fold serial dilutions starting at 5 μM, duplicate.
Chain of EGFR (L861Q) (P00533 25-1210 L861Q): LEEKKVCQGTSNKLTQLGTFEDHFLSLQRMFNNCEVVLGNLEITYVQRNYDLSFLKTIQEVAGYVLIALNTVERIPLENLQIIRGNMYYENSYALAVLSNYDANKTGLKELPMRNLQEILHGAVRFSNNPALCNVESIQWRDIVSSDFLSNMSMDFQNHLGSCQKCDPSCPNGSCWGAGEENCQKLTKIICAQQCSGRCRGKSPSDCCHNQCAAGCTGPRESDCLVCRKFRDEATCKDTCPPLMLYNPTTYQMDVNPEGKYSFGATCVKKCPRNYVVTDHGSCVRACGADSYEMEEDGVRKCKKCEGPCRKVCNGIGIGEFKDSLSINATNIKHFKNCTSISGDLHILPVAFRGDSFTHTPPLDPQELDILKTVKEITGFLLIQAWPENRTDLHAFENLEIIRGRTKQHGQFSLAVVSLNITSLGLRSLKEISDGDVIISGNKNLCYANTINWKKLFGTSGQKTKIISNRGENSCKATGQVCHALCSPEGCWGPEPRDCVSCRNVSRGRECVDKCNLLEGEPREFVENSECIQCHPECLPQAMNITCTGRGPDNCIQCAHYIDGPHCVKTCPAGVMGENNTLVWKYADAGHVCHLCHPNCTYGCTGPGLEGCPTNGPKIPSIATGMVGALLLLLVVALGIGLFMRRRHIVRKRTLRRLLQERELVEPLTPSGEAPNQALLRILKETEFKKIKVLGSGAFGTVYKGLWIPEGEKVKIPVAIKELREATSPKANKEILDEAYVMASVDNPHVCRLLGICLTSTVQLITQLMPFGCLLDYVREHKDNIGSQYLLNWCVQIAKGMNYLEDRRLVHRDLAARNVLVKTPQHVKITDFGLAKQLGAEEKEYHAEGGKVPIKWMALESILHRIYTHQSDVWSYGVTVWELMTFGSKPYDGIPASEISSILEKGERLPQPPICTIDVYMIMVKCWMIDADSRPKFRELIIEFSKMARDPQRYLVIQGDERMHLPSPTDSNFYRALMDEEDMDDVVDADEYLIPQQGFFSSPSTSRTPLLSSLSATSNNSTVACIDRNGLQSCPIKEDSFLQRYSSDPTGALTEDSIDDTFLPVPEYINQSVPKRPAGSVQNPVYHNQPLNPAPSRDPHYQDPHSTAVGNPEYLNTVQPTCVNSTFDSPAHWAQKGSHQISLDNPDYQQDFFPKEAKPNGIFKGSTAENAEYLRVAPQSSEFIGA
For another assay, the target named is T1, CYP1A2 (Homo sapiens, UniProt P05177).
T1 sequence (P05177 1-516): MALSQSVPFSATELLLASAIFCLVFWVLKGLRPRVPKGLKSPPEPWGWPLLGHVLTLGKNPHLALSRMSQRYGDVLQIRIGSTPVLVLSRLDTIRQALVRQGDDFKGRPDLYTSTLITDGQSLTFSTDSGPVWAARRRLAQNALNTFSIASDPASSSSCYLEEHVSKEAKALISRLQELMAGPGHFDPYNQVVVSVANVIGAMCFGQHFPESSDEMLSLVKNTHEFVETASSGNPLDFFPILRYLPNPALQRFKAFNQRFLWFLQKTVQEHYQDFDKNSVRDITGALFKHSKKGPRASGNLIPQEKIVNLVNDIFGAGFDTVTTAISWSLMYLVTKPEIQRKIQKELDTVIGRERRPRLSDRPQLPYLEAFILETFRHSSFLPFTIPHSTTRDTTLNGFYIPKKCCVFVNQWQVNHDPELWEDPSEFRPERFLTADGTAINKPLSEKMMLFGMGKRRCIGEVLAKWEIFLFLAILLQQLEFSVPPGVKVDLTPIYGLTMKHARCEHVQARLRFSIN
Put plainly: CYP1A2 inhibition LCMS. It is filed as in vitro ADME.

On to `C=CC(=O)Nc1cc(CN2CCNC(=O)C2)cc(-c2cnc3ccccc3n2)c1` [Compound 1b, N-[3-[(3-oxopiperazin-1-yl)methyl]-5-quinoxalin-2-yl-phenyl] prop-2-enamide], for which the IC50 was 2.86 µM against EGFR; 2.29 µM on EGFR (d746-750); 2.65 µM at EGFR (L861Q); greater than 100 µM against CYP1A2 (first session (before /)); greater than 100 µM at CYP1A2 (second session (after /)).

In the case of `C=CC(=O)Nc1cc(NS(C)(=O)=O)cc(-c2cnc3ccccc3n2)c1` [Compound 3], the IC50 on CYP1A2 (first session (before /)) and on CYP1A2 (second session (after /)) was greater than 100 µM throughout.

Take `C=CC(=O)Nc1cc(CC(=O)OC)cc(-c2cnc3ccccc3n2)c1` [Compound 2]: the IC50 against CYP1A2 (first session (before /)) is 90 µM; on CYP1A2 (second session (after /)), 5.1 µM.

Consider `C=CC(=O)Nc1cc(CN2CCN(C)C(=O)C2)cc(-c2cnc3ccccc3n2)c1` [Compound 1a], for which the IC50 against EGFR was 0.37 µM; against EGFR (d746-750) it was 0.345 µM; against EGFR (L861Q), 0.352 µM; against CYP1A2 (first session (before /)), 34 µM; against CYP1A2 (second session (after /)), greater than 100 µM.
